Here are results for eight compounds from ChEMBL document CHEMBL1130900, “Synthesis and structure-activity relationships of 2-pyridones: II. 8-(Fluoro-substituted pyrrolidinyl)-2-pyridones as antibacterial agents” (Bioorg Med Chem Lett, 1998).

≈ marks a conversion by molar mass, not a printed value.

Broadly, the MIC is the lowest concentration found to suppress growth. The ED50 is the dose that gives a 50% effect, or the effect in half of the subjects. By Cmax is commonly meant the highest concentration seen after dosing. By bioavailability is commonly meant the share of a dose that reaches the circulation, judged against a reference dose that is usually intravenous.

In one data set the test system is Streptococcus pyogenes. The experiment in a line: Antibacterial activity against Streptococcus pyogenes EES61 was determined. It counts as functional. The settings on record: Streptococcus pyogenes; read-out: MIC.
For a further data set, the system named is Streptococcus equinus. The experiment in a line: Antibacterial activity against Gram-positive Streptococcus bovis A5169 was determined. Type of data set: functional. The conditions noted are these: Streptococcus equinus; read-out: MIC.
Data set [1] has as its system Escherichia coli. The experiment in a line: Effective dose against Escherichia coli JUHL in mice upon subcutaneous administration. It counts as functional. The settings on record: sc.
The test system of data set [2] is Escherichia coli. The experiment in a line: Antibacterial activity against Escherichia coli JUHL was determined. Type of data set: functional. The conditions noted are these: Escherichia coli; read-out: MIC.
The next data set relates to Providencia stuartii. The experiment in a line: Antibacterial activity against Gram-negative Providencia Stuartii CMX640 was determined. Type of data set: functional. The conditions noted are these: Providencia stuartii; read-out: MIC.
A further data set deals with Enterococcus faecium. The experiment in a line: Antibacterial activity against Enterococcus faecium ATCC 8043 was determined. It counts as functional. The conditions noted are these: Enterococcus faecium, ATCC 8043; read-out: MIC.
In the next data set the test system is Klebsiella aerogenes. The experiment in a line: Antibacterial activity against Enterobacter aerogenes ATCC 13048 was determined. It counts as functional. The settings on record: Klebsiella aerogenes, ATCC 13048; read-out: MIC.
Data set [3] has as its system Staphylococcus aureus. The experiment in a line: Antibacterial activity against Staphylococcus aureus A1775 was determined. It counts as functional. The settings on record: Staphylococcus aureus; read-out: MIC.
Data set [4] relates to Staphylococcus aureus. The experiment in a line: Effective dose against Staphylococcus aureus NCTC-10649M in mice upon subcutaneous administration. The conditions noted are these: sc. It counts as functional.
The next data set has as its system Pseudomonas aeruginosa. The experiment in a line: Antibacterial activity against Pseudomonas aeruginosa A-5007 was determined. It counts as functional. The conditions noted are these: Pseudomonas aeruginosa; read-out: MIC.
For data set [5], the system named is Staphylococcus aureus. The experiment in a line: Antibacterial activity against Staphylococcus aureus NCTC-10649M was determined. It counts as functional.
For another data set, the system named is Klebsiella pneumoniae. The experiment in a line: Antibacterial activity against Klebsiella pneumoniae ATCC 8045 was determined. It counts as functional. The conditions noted are these: Klebsiella pneumoniae, ATCC 8045; read-out: MIC.
The nature of data set [6]: Compound was evaluated for maximal plasma concentration in rat upon 5 mg/kg upon oral administration. Type of data set: ADME, organism-based. Also on record: dose 5 mg/kg, route oral.
Data set [7] in a line: Compound was tested for its effective dose against Escherichia coli JUHL in mice upon peroral administration. Type of data set: functional. The settings on record: Mus musculus, po.
The nature of data set [8]: Oral bioavailability in rat (dose 5 mg/kg). It counts as ADME, organism-based. The conditions noted are these: in vivo.
The test system of data set [9] is Staphylococcus aureus. The experiment in a line: Effective dose against Staphylococcus aureus NCTC-10649M in mice upon peroral administration. Type of data set: functional. The settings on record: po.
The next data set deals with DNA gyrase (bacterial). The experiment in a line: Compound was tested for bacterial DNA gyrase activity. The conditions noted are these: Bacteria.
The mark [10] stands for this setting: Staphylococcus aureus, read-out: MIC.

`Cc1c(N2C[C@@H](CF)[C@H](N)C2)c(F)cn2c(=O)c(C(=O)O)cc(C3CC3)c12`: the MIC with Streptococcus pyogenes came to 0.1 µg/mL (≈ 0.265 µM); in the data set with Streptococcus equinus, 0.1 µg/mL (≈ 0.265 µM); with Escherichia coli [2] it was 0.02 µg/mL (≈ 0.053 µM); in the data set with Providencia stuartii, 0.78 µg/mL (≈ 2.07 µM); in the data set with Enterococcus faecium it was 0.1 µg/mL (≈ 0.265 µM); in the data set on Klebsiella aerogenes it was 0.05 µg/mL (≈ 0.132 µM). The MIC came to 1.56 µg/mL (≈ 4.13 µM) in the data set with Staphylococcus aureus [3], 0.39 µg/mL (≈ 1.03 µM) in the data set with Pseudomonas aeruginosa, 0.02 µg/mL (≈ 0.053 µM) in the data set on Staphylococcus aureus [5] and 0.01 µg/mL (≈ 0.0265 µM) in the data set on Klebsiella pneumoniae. Further, the ED50 in the data set with Escherichia coli [1] worked out at 0.8 mg/kg/day; in the data set on Staphylococcus aureus [4], 1.2 mg/kg/day.

`Cc1c(N2CC[C@H]([C@@H](N)C(F)(F)F)C2)c(F)cn2c(=O)c(C(=O)O)cc(C3CC3)c12` came in with a Cmax in data set [6] of 800 ng/mL. Besides, the MIC in the data set with Streptococcus pyogenes was 0.2 µg/mL (≈ 0.468 µM); in the data set on Streptococcus equinus, 0.2 µg/mL (≈ 0.468 µM); with Escherichia coli [2], 0.2 µg/mL (≈ 0.468 µM); in the data set with Providencia stuartii, 3.1 µg/mL (≈ 7.25 µM); in the data set on Enterococcus faecium, 0.1 µg/mL (≈ 0.234 µM); in the data set with Klebsiella aerogenes, 0.78 µg/mL (≈ 1.82 µM). Moreover, the MIC in the data set with Staphylococcus aureus [3] stood at 0.39 µg/mL (≈ 0.912 µM); in the data set on Pseudomonas aeruginosa, 6.2 µg/mL (≈ 14.5 µM); in the data set with Staphylococcus aureus [5] (setting [10]), 0.005 µg/mL (≈ 0.0117 µM); with Klebsiella pneumoniae, 0.2 µg/mL (≈ 0.468 µM). In addition, the ED50 was more than 4 mg/kg/day in the data set with Escherichia coli [1], more than 10 mg/kg/day in data set [7], 11.9 mg/kg/day in the data set on Staphylococcus aureus [4] and 25 mg/kg/day in the data set on Staphylococcus aureus [9]. The compound further registered a bioavailability in data set [8] of 57%.

Take `Cc1c(N2CCC(CN)(CF)C2)c(F)cn2c(=O)c(C(=O)O)cc(C3CC3)c12` (stereo not drawn): the MIC with Streptococcus pyogenes came out at 0.05 µg/mL (≈ 0.128 µM); in the data set with Streptococcus equinus, 0.1 µg/mL (≈ 0.255 µM); with Escherichia coli [2], 0.05 µg/mL (≈ 0.128 µM); in the data set with Providencia stuartii it was 0.78 µg/mL (≈ 1.99 µM); in the data set on Enterococcus faecium, 0.1 µg/mL (≈ 0.255 µM); in the data set on Staphylococcus aureus [3], 1.56 µg/mL (≈ 3.99 µM). For the same compound, the MIC with Pseudomonas aeruginosa stood at 0.78 µg/mL (≈ 1.99 µM); in the data set with Staphylococcus aureus [5] (setting [10]), 0.02 µg/mL (≈ 0.0511 µM); in the data set with Klebsiella pneumoniae, 0.1 µg/mL (≈ 0.255 µM). The ED50 is 1.5 mg/kg/day with Escherichia coli [1], more than 10 mg/kg/day in data set [7], 1.5 mg/kg/day in the data set on Staphylococcus aureus [4] and 3.8 mg/kg/day in the data set on Staphylococcus aureus [9].

On to `Cc1c(N2C[C@H](CF)[C@H](N)C2)c(F)cn2c(=O)c(C(=O)O)cc(C3CC3)c12`, for which the MIC in the data set on Streptococcus pyogenes came to 0.02 µg/mL (≈ 0.053 µM); in the data set on Escherichia coli [2], 0.005 µg/mL (≈ 0.0132 µM); in the data set with Providencia stuartii it was 0.39 µg/mL (≈ 1.03 µM); in the data set with Enterococcus faecium it was 0.1 µg/mL (≈ 0.265 µM); with Klebsiella aerogenes, 0.02 µg/mL (≈ 0.053 µM); in the data set with Staphylococcus aureus [3], 1.56 µg/mL (≈ 4.13 µM). The results for the minimum inhibitory concentration (MIC) with Pseudomonas aeruginosa, in the data set on Staphylococcus aureus [5] (setting [10]) and in the data set on Klebsiella pneumoniae were 0.2 µg/mL (≈ 0.53 µM), 0.01 µg/mL (≈ 0.0265 µM) and 0.005 µg/mL (≈ 0.0132 µM), respectively.

`Cc1c(N2C[C@@H](CN)[C@H](C(F)(F)F)C2)c(F)cn2c(=O)c(C(=O)O)cc(C3CC3)c12`: the MIC with Streptococcus pyogenes stood at 0.02 µg/mL (≈ 0.0468 µM); in the data set with Streptococcus equinus, 0.02 µg/mL (≈ 0.0468 µM); with Escherichia coli [2], 0.02 µg/mL (≈ 0.0468 µM); in the data set on Providencia stuartii, 1.56 µg/mL (≈ 3.65 µM); with Enterococcus faecium, 0.02 µg/mL (≈ 0.0468 µM); in the data set on Klebsiella aerogenes it was 0.05 µg/mL (≈ 0.117 µM). The minimal inhibitory concentration (MIC) in the data set with Staphylococcus aureus [3] was 0.78 µg/mL (≈ 1.82 µM); in the data set on Pseudomonas aeruginosa it was 0.39 µg/mL (≈ 0.912 µM); in the data set on Staphylococcus aureus [5] (setting [10]) it was 0.01 µg/mL (≈ 0.0234 µM); with Klebsiella pneumoniae, 0.01 µg/mL (≈ 0.0234 µM). For the same compound, the CC50 in the data set on DNA gyrase (bacterial) came to 6.5 µg/mL (≈ 15.2 µM). Further, the results for the ED50 with Staphylococcus aureus [4] and with Staphylococcus aureus [9] were 0.7 mg/kg/day and 2.6 mg/kg/day, respectively.

In the case of `Cc1c(N2CC[C@@H]([C@@H](N)C(F)(F)F)C2)c(F)cn2c(=O)c(C(=O)O)cc(C3CC3)c12`, the MIC was determined as 0.2 µg/mL (≈ 0.468 µM) in the data set with Streptococcus pyogenes; 0.39 µg/mL (≈ 0.912 µM) in the data set on Streptococcus equinus; 0.78 µg/mL (≈ 1.82 µM) with Escherichia coli [2]; 6.2 µg/mL (≈ 14.5 µM) in the data set with Providencia stuartii; 0.39 µg/mL (≈ 0.912 µM) in the data set on Enterococcus faecium; 1.56 µg/mL (≈ 3.65 µM) with Klebsiella aerogenes. Also, the MIC with Staphylococcus aureus [3] was 0.78 µg/mL (≈ 1.82 µM); in the data set on Pseudomonas aeruginosa, 6.2 µg/mL (≈ 14.5 µM); in the data set on Staphylococcus aureus [5] (setting [10]), 0.02 µg/mL (≈ 0.0468 µM); with Klebsiella pneumoniae, 0.39 µg/mL (≈ 0.912 µM).

`Cc1c(N2C[C@H](CF)[C@@H](N)C2)c(F)cn2c(=O)c(C(=O)O)cc(C3CC3)c12`: the MIC was found to be 0.2 µg/mL (≈ 0.53 µM) in the data set on Streptococcus pyogenes; 0.39 µg/mL (≈ 1.03 µM) in the data set on Streptococcus equinus; 0.1 µg/mL (≈ 0.265 µM) in the data set with Escherichia coli [2]; 0.78 µg/mL (≈ 2.07 µM) in the data set on Providencia stuartii; 0.2 µg/mL (≈ 0.53 µM) in the data set with Enterococcus faecium; 0.02 µg/mL (≈ 0.053 µM) in the data set with Klebsiella aerogenes. The minimal inhibitory concentration (MIC) with Staphylococcus aureus [3] is 3.1 µg/mL (≈ 8.21 µM); in the data set on Pseudomonas aeruginosa it was 0.39 µg/mL (≈ 1.03 µM); in the data set on Staphylococcus aureus [5] (setting [10]), 0.01 µg/mL (≈ 0.0265 µM); in the data set with Klebsiella pneumoniae, 0.002 µg/mL (≈ 0.0053 µM). Further, the ED50 in the data set on Escherichia coli [1] stood at 0.4 mg/kg/day; in data set [7], 3 mg/kg/day; with Staphylococcus aureus [4], 1.2 mg/kg/day; in the data set on Staphylococcus aureus [9], 11.5 mg/kg/day.

Take `Cc1c(N2CCC(N)(CF)C2)c(F)cn2c(=O)c(C(=O)O)cc(C3CC3)c12` (stereo not drawn): the Cmax in data set [6] worked out at 600 ng/mL. Also, the minimal inhibitory concentration (MIC) in the data set with Streptococcus pyogenes was determined as 0.1 µg/mL (≈ 0.265 µM); with Streptococcus equinus it was 0.2 µg/mL (≈ 0.53 µM); in the data set with Escherichia coli [2] it was 0.02 µg/mL (≈ 0.053 µM); in the data set with Providencia stuartii, 0.39 µg/mL (≈ 1.03 µM); in the data set on Enterococcus faecium, 0.1 µg/mL (≈ 0.265 µM); with Klebsiella aerogenes it was 0.1 µg/mL (≈ 0.265 µM). Further, the minimum inhibitory concentration (MIC) in the data set with Staphylococcus aureus [3] was 0.78 µg/mL (≈ 2.07 µM); in the data set on Pseudomonas aeruginosa it was 0.39 µg/mL (≈ 1.03 µM); with Staphylococcus aureus [5] (setting [10]), 0.02 µg/mL (≈ 0.053 µM); with Klebsiella pneumoniae it was 0.01 µg/mL (≈ 0.0265 µM). In addition, the ED50 in the data set with Escherichia coli [1] amounted to 4.3 mg/kg/day; in [7], 15.1 mg/kg/day; with Staphylococcus aureus [4] it was 2.7 mg/kg/day; with Staphylococcus aureus [9] it was 10.3 mg/kg/day. The bioavailability in data set [8] amounted to 63%.
